Experimental data reported in US11160798B2, “Neuroprotective CB2 receptor agonists” (THE CLEVELAND CLINIC FOUNDATION, priority 2012, dated 2021).

How the values were obtained:
CB2 receptor = CB2 receptor (Homo sapiens, UniProt P34972); conditions: cited from earlier work
[1] = system: cognitive impairment induced by Aβ1-40; assay: Morris water maze test in rats microinjected with Aβ1-40 fibrils; assay type: in vivo, rat; conditions: Aβ1-40-injected rats
Procedure: Animals and treatment protocol. All animal procedures were approved by the Animal Care and Use Committee of Cleveland Clinic. Animals were housed the Institutional Biological Rodent Unit on a 12/12 h light/dark cycle with water and food pellets available ad libitum. Adult male Sprague-Dawley (Charles River, Wilmington, Mass.) rats weighing 200-250 g were used, and all experiments were performed during the light cycle.
(§1) Animals were divided into several groups ([…]). The Aβ1-40 group received bilateral intracerebral microinjection of Aβ1-40 fibrils once and saline intraperitoneally (i.p.) daily for 14 days. The Aβ1-40+MDA7 group received bilateral intracerebral microinjection of Aβ1-40 fibrils once and 15 mg/kg MDA7 i.p. daily for 14 days. Other cohorts received smaller doses of MDA7 (5 mg/kg or 1.5 mg/kg) i.p. daily for 14 days to determine the dose-response characteristics for MDA7. In other groups, AM630 (a CB2 antagonist) 5 mg/kg i.p. was administered daily for 14 days either alone (Aβ1-40+AM630 group) or 15 min prior to MDA7 (15 mg/kg i.p.) administration (Aβ1-40+MDA7+AM630 group) to rats injected with β1-40 fibrils. MDA7 group and control group received bilateral intracerebral microinjection of artificial cerebrospinal fluid (130 mM NaCl, 2.6 mM KCl. 4.3 mM MgCl2 and 1.8 mM CaCl2) once and 15 mg/kg MDA7 or saline i.p. daily for 14 days, respectively. Intraperitoneal administration of AM630, MDA7 or saline started on the same day after intracerebral microinjection of Aβ1-40. All drugs were prepared coded. Decoding was performed at the end of all experiments.
Microinjection of amyloid fibrils into the hippocampal CA1 area. Rats were anesthetized with sodium pentobarbital (45 mg/kg i.p.) and restrained in a stereotaxic apparatus. Aβ1-40 fibrils were formed as described previously. Chacon, et al., Mol Psychiatry 9(10), 953-61 (2004), Aβ1-40 fibrils (10 μg/3 μl) or 3 μl of artificial cerebrospinal fluid were injected stereotaxically and bilaterally into each hippocampus (coordinates; Bregma −3.5 mm anteroposterior, ±2.0 mm mediolateral, and −3.0 mm dorsoventral) using a 10 μl Hamilton syringe with a 27 G stainless steel needle at a rate of 0.5 μl/min. This experimental model has been used for studying AD. Ahmed, et al., Neuroscience 169(3), 1296-306 (2010).
Morris water maze test. A cohort of rats (n=10 per group) was tested 15 days after surgery as described by Chacon et al. (ibid). Testing was conducted in all groups at the same time of the day. The experimental apparatus consisted of a circular pool (120 cm in diameter, 45 cm high). An invisible platform (15 cm in diameter, 35 cm high) was placed 1.5 cm below the surface of the water. The water temperature was kept at 24-28° C. The pool was located in a test room, and many clues external to the maze were visible from the pool, which could be used by the rats for spatial orientation. The position of the cues was kept constant throughout the task. Each rat underwent four trials per day for five days. During each trial (memory acquisition), the rats were placed randomly at one of four fixed starting points and were allowed to swim for 120 s or until they escaped from the water by reaching the platform. The platform was located in the same position throughout the test in the middle of one quadrant. The start location was moved to a different quadrant in each trial so that no single start location was used in consecutive trials. In each training session, the latency to escape to the hidden platform was recorded. After the rats reached the platform, they were allowed to rest there for 20 seconds, and they then were removed from the pool. An inter-trial interval of at least 4 minutes was used to ensure that each rat's performance was not impaired by fatigue. After completing four trials, the rats were removed from the pool, dried and returned to their home cage. […]

Aβ1-40 = assay: Clearance of Aβ1-40 injected in the hippocampal CA1 area (immunofluorescence); assay type: in vivo, rat
Procedure: as §1
Microinjection of amyloid fibrils into the hippocampal CA1 area. Rats were anesthetized with sodium pentobarbital (45 mg/kg i.p.) and restrained in a stereotaxic apparatus. Aβ1-40 fibrils were formed as described previously. […]
Immunostaining. […] Three to six sections from each rat were randomly selected and were analyzed using Leica DMLB fluorescence microscope (Leica Microsystems Wetzlar GmbH, Germany) by one investigator, who was blinded to the origin of tissue being examined. Images were quantified using MCID Core software version 7.0 (InterFocus Imaging Ltd, Cambridge, England).

Sequence of CB2 receptor (P34972 whole entry): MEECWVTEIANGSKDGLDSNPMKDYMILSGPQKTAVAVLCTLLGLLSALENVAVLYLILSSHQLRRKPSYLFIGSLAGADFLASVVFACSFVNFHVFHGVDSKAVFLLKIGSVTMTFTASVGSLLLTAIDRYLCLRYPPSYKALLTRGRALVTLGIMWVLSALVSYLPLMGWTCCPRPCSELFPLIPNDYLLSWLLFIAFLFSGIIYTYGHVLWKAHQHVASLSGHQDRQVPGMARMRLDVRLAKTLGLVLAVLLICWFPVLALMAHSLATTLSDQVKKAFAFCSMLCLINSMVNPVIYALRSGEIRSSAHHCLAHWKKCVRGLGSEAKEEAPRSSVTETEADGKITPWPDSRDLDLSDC

Structure (SMILES) | activity compared with the other enantiomer (CB2 receptor) | effect on escape latency of AM630 given prior to MDA7 ([1]; AM630 5 mg/kg i.p. 15 min prior to MDA7 15 mg/kg i.p., daily for 14 days) | spatial memory or probe test, AM630 alone ([1]; AM630 5 mg/kg i.p. daily for 14 days alone, vs Aβ1-40 group) | effect of prior AM630 on MDA7-induced removal of Aβ1-40 (Aβ1-40; AM630 5 mg/kg i.p. for 14 days prior to MDA7 15 mg/kg) | clearance of injected Aβ1-40, AM630 alone (Aβ1-40; Aβ1-40-injected rats, AM630 5 mg/kg i.p. alone)
CC1(Cc2ccccc2)COc2cc(C(=O)N3CCCCC3)ccc21 (stereo in doubt) [S enantiomer, (S)-(3-benzyl-3-methyl-2,3-dihydro-benzofuran-6-yl)-piperidin-1-yl-methanone] | higher activity | – | – | – | –
COc1ccc(C(=O)c2c(C)n(CCN3CCOCC3)c3cc(I)ccc23)cc1 [AM630, reference compound] | – | reversed the effect of MDA7 | did not show any improvement | abrogated | no effect
